Here are results for one compound from patent EP0010667A1, “Cepham compounds, pharmaceutical compositions containing them and processes for the preparation thereof and of known cephem compounds” (FUJISAWA PHARMACEUTICAL CO., LTD., priority 1978, dated 1980).

Assay [1] deals with Klebsiella pneumoniae 20. The assay can be described thus: In vitro antibacterial activity, two-fold agar-plate dilution method. It is filed as cell-based. The following applies: heart infusion agar (HI-agar), incubated at 37°C for 20 hours. The protocol: (§1) In vitro antibacterial activity was determined by the two-fold agar-plate dilution'method as described below. One loopful of an overnight culture of each test strain in Trypticase soy broth was streaked on heart infusion agar (HI-agar) containing graded concentration of the test compound and incubated at 37°C for 20 hours. The minimal inhibitory concentration (MIC) was expressed in µg/m1.

Assay [2] relates to Proteus mirabilis 18. Described as above. It is filed as cell-based. The following applies: heart infusion agar (HI-agar), incubated at 37°C for 20 hours. How it is done:
as §1

Values after ≈ are worked out from the molar mass of the structure shown.

With `CO/N=C(\C(=O)NC1C(=O)N2C(C(=O)O)C(=COC(C)=O)CSC12)c1csc(N)n1` (stereo not drawn) [Test compound, 7-[2-(2-Aminothiazol-4-yl)-2-methoxyimino-acetamido]-3-acetoxymethylenecepham-4-carboxylic acid (syn isomer)], the MIC in assay [1] and in assay [2] was 6.25 µg/mL (≈ 13.7 µM) throughout.

By MIC is commonly meant the smallest concentration in the dilution series that meets the test's criterion for growth inhibition. Low values mean a more susceptible organism, high ones a less susceptible organism.
